According to PubChem BioAssay (NCI):
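Assay format: 96-well plates, 48-hour exposure. Here, GI50 denotes the concentration required for 50% inhibition of growth. TGI marks complete inhibition of growth.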

Tests used:
Experiment in all cases: inhibition of tumour cell growth, NCI panel, 48 h
[1] = system: 786-0 renal
[2] = system: A498 renal
[3] = system: A549 NSCLC
[4] = system: ACHN renal
[5] = system: BT-549 breast
[6] = system: CAKI-1 renal
[7] = system: CCRF-CEM leukemia
[8] = system: COLO 205 colon
[9] = system: DU-145 prostate
[10] = system: EKVX NSCLC
[11] = system: HCC-2998 colon
[12] = system: HCT-116 colon
[13] = system: HCT-15 colon
[14] = system: HL-60(TB) leukemia
[15] = system: HOP-62 NSCLC
[16] = system: HOP-92 NSCLC
[17] = system: HS 578T breast
[18] = system: HT29 colon
[19] = system: IGROV1 ovarian
[20] = system: K-562 leukemia
[21] = system: KM12 colon
[22] = system: LOX IMVI melanoma
[23] = system: M14 melanoma
[24] = system: MALME-3M melanoma
[25] = system: MCF7 breast
[26] = system: MDA-MB-231 breast
[27] = system: MDA-MB-435
[28] = system: MDA-MB-468 breast
[29] = system: MOLT-4 leukemia
[30] = system: NCI-H226 lung
[31] = system: NCI-H23 lung
[32] = system: NCI-H460 lung
[33] = system: NCI-H522 lung
[34] = system: NCI/ADR-RES ovarian
[35] = system: OVCAR-3 ovarian
[36] = system: OVCAR-4 ovarian
[37] = system: OVCAR-5 ovarian
[38] = system: OVCAR-8 ovarian
[39] = system: PC-3 prostate
[40] = system: RPMI-8226 leukemia
[41] = system: RXF 393 renal
[42] = system: SF-268 CNS
[43] = system: SF-295 CNS
[44] = system: SF-539 CNS
[45] = system: SK-MEL-2 melanoma
[46] = system: SK-MEL-28 melanoma
[47] = system: SK-MEL-5 melanoma
[48] = system: SK-OV-3 ovarian
[49] = system: SN12C renal
[50] = system: SNB-19 CNS
[51] = system: SNB-75 CNS
[52] = system: SR leukemia
[53] = system: SW-620 colon
[54] = system: T-47D breast
[55] = system: TK-10 renal
[56] = system: U251 CNS
[57] = system: UACC-257 melanoma
[58] = system: UACC-62 melanoma
[59] = system: UO-31 renal

In the case of `CS(=O)(=O)Nc1cc(-c2ccc3ncnc(N4CCc5cc(F)c(Cl)cc54)c3c2)cnc1Cl`, the GI50 [1] is reported as 1640 nM, the TGI [1] is reported as 27000 nM and the GI50 [2] is reported as 640 nM. It also gave a TGI [2] of 3540 nM, a GI50 [3] of 1640 nM and a TGI [3] of 8670 nM. For the same compound, the GI50 [4] was 1660 nM, the TGI [4] was over 100000 nM and the GI50 [5] was 1480 nM. For the same compound, the TGI [5] was 5110 nM, the GI50 [6] was 748 nM and the TGI [6] was 7320 nM. For the same compound, the GI50 [7] was 1840 nM, the TGI [7] was over 100000 nM and the GI50 [8] was 1610 nM. It also gave a TGI [8] of 9610 nM, a GI50 [9] of 1670 nM and a TGI [9] of 19500 nM. For the same compound, the GI50 [10] was 559 nM, the TGI [10] was 3630 nM and the GI50 [11] was 1240 nM. The TGI [11] was 8360 nM, the GI50 [12] was 3490 nM and the TGI [12] was 17400 nM. For the same compound, the GI50 [13] was 1000 nM, the TGI [13] was 11400 nM and the GI50 [14] was 484 nM. For the same compound, the TGI [14] was 15100 nM, the GI50 [15] was 704 nM and the TGI [15] was 7360 nM. The GI50 [16] was 595 nM, the TGI [16] was 6680 nM and the GI50 [17] was 166 nM. The TGI [17] was 1130 nM, the GI50 [18] was 1480 nM and the TGI [18] was 16800 nM. For the same compound, the GI50 [19] was 194 nM, the TGI [19] was 979 nM and the GI50 [20] was 5370 nM. For the same compound, the TGI [20] was 68800 nM, the GI50 [21] was 3020 nM and the TGI [21] was 18500 nM. It also gave a GI50 [22] of 1050 nM, a TGI [22] of 4090 nM and a GI50 [23] of 1480 nM. The TGI [23] was 14700 nM, the GI50 [24] was 174 nM and the TGI [24] was 1550 nM. It also gave a GI50 [25] of 255 nM, a TGI [25] of 11600 nM and a GI50 [26] of 1510 nM. It also gave a TGI [26] of 4290 nM, a GI50 [27] of 1720 nM and a TGI [27] of 13000 nM. For the same compound, the GI50 [28] was 211 nM, the TGI [28] was 1380 nM and the GI50 [29] was 1060 nM. The TGI [29] was 5000 nM, the GI50 [30] was 672 nM and the TGI [30] was 7430 nM. The GI50 [31] was 1630 nM, the TGI [31] was 9940 nM and the GI50 [32] was 922 nM. For the same compound, the TGI [32] was 13100 nM, the GI50 [33] was 1620 nM and the TGI [33] was 14300 nM. It also gave a GI50 [34] of 1950 nM, a TGI [34] of 15300 nM and a GI50 [35] of 830 nM. The TGI [35] was 4560 nM, the GI50 [36] was 2350 nM and the TGI [36] was 21100 nM. For the same compound, the GI50 [37] was 1870 nM, the TGI [37] was 23500 nM and the GI50 [38] was 1870 nM. For the same compound, the TGI [38] was 20500 nM, the GI50 [39] was 1030 nM and the TGI [39] was 21000 nM. The GI50 [40] was 1840 nM, the TGI [40] was over 100000 nM and the GI50 [41] was 577 nM. For the same compound, the TGI [41] was 3170 nM, the GI50 [42] was 1650 nM and the TGI [42] was 47900 nM. The GI50 [43] was 1060 nM, the TGI [43] was 5280 nM and the GI50 [44] was 1560 nM. The TGI [44] was 6730 nM, the GI50 [45] was 1730 nM and the TGI [45] was 5800 nM. For the same compound, the GI50 [46] was 1320 nM, the TGI [46] was 13400 nM and the GI50 [47] was 850 nM. For the same compound, the TGI [47] was 2610 nM, the GI50 [48] was 444 nM and the TGI [48] was 2840 nM. The GI50 [49] was 1680 nM, the TGI [49] was 36500 nM and the GI50 [50] was 1640 nM. It also gave a TGI [50] of 13400 nM, a GI50 [51] of 254 nM and a TGI [51] of 3000 nM. For the same compound, the GI50 [52] was 1520 nM, the TGI [52] was 12900 nM and the GI50 [53] was 2510 nM. For the same compound, the TGI [53] was 17400 nM, the GI50 [54] was 141 nM and the TGI [54] was 963 nM. The GI50 [55] was 644 nM, the TGI [55] was 9620 nM and the GI50 [56] was 2360 nM. The TGI [56] was 17500 nM, the GI50 [57] was 1390 nM and the TGI [57] was 11000 nM. For the same compound, the GI50 [58] was 382 nM, the TGI [58] was 2570 nM and the GI50 [59] was 252 nM. It also gave a TGI [59] of 4050 nM.
